Laboratory results as given in ChEMBL document CHEMBL2007661, “Compounds: GSK PKIS; Assays: UNC Frye lab” (2012).
Several values for one entry are separate records, joined by “and”; a condition that tells them apart may be missing. Equal values may be shown once.

Legend:
[1] = target: T1, Inhibitor of nuclear factor kappa-B kinase subunit epsilon (Homo sapiens) (UniProt Q14164); conditions: at 1 µM
T1 sequence (whole entry): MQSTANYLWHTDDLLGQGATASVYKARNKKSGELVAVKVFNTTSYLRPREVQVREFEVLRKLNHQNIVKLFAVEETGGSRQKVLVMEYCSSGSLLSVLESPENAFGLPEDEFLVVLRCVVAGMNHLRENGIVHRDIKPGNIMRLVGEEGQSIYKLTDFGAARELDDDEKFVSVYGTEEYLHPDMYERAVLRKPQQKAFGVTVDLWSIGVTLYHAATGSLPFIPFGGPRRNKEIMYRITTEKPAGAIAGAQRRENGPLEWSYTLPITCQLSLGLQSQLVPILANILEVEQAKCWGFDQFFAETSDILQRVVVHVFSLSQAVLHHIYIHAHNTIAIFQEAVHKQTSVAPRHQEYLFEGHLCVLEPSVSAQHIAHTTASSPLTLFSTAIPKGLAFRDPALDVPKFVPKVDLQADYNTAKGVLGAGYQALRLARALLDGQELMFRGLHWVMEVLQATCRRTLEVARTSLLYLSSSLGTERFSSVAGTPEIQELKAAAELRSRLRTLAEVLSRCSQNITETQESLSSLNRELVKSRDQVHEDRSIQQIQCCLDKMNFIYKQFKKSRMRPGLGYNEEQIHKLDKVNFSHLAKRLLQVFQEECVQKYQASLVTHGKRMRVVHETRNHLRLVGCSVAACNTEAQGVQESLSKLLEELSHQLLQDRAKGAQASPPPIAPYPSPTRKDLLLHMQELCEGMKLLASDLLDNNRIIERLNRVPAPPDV

[2] = target: T2, Inhibitor of nuclear factor kappa-B kinase subunit alpha (Homo sapiens) (UniProt O15111); conditions: at 1 µM
T2 sequence (whole entry): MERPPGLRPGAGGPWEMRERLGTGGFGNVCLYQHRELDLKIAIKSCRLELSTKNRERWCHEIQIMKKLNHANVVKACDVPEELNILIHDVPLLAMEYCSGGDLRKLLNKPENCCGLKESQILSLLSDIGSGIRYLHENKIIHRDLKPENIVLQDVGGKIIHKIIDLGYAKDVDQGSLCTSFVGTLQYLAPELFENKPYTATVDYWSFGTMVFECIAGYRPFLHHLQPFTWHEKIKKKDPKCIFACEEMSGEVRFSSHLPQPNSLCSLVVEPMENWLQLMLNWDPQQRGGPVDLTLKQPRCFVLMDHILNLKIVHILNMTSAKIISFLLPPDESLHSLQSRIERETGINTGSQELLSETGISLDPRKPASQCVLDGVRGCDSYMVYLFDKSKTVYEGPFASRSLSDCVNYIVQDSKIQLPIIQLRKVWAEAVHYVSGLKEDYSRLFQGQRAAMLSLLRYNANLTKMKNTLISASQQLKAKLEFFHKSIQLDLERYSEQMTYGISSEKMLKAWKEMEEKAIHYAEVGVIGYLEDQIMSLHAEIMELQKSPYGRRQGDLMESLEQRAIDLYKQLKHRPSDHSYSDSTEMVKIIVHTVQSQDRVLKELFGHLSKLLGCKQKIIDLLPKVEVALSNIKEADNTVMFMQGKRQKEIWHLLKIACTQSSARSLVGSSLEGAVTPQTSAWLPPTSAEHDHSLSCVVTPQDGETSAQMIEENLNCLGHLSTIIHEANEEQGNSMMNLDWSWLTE

[3] = target: T3, Tyrosine-protein kinase Mer (Homo sapiens) (UniProt Q12866); conditions: at 10 µM
T3 sequence (whole entry): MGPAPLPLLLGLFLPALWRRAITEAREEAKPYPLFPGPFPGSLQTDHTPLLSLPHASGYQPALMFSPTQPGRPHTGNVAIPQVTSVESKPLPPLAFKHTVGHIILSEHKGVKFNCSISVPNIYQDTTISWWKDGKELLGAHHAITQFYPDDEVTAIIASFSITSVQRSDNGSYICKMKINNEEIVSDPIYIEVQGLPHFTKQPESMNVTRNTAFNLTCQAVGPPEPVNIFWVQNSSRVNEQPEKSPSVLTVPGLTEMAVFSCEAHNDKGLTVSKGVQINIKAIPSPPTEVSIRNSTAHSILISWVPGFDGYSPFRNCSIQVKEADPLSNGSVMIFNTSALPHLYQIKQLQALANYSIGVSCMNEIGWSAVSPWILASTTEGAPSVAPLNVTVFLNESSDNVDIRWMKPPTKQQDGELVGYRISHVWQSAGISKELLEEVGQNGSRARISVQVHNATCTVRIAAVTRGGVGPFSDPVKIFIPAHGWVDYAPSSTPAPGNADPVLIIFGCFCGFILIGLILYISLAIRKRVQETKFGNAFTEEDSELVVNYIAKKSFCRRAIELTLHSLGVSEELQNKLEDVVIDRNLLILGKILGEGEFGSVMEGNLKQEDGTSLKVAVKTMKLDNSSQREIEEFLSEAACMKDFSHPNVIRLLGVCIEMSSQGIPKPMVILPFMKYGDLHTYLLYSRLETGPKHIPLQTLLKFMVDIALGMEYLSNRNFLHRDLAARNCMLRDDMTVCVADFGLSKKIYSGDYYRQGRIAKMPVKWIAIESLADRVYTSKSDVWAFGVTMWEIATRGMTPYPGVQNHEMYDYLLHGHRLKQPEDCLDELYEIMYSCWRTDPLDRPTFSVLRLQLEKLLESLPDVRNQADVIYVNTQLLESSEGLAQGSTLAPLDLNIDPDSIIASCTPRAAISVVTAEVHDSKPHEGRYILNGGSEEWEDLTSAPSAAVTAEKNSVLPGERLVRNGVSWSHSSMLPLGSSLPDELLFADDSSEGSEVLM

Cc1ccc2c(-c3ccnc(Nc4ccccc4)n3)c(-c3ccc(F)cc3)nn2n1
inhibition [1]: -1% and 0%
inhibition [2]: 2% and 1%
inhibition [3]: 5%

COc1cc(C=NNc2ncnc3c2cnn3-c2ccccc2)ccc1O
inhibition [1]: 13% and 11%
inhibition [2]: 12% and 15%
inhibition [3]: 0%

CS(=O)(=O)CCNCc1ccc(-c2ccc3ncnc(Nc4ccc(OCc5ccccc5)c(C(F)(F)F)c4)c3c2)o1
inhibition [1]: -2% and -1%
inhibition [2]: 1% and -1%
inhibition [3]: -2%

CCCN(CCS(C)(=O)=O)Cc1ccc(-c2ccc3ncnc(Nc4ccc(OCc5cccc(F)c5)c(Cl)c4)c3c2)o1
inhibition [1]: 1% and 3%
inhibition [2]: 2% and -1%
inhibition [3]: -3%

COC(=O)Nc1nc2cc(Oc3ccc(NC(=O)Nc4cccc(C(=O)O)c4)cc3)ccc2[nH]1
inhibition [1]: 0% and -2%
inhibition [2]: 2% and 4%
inhibition [3]: 94%

COc1cccc(-n2nc(C)c3c(N/N=C(\C)c4ccncc4)ncnc32)c1
inhibition [1]: 18% and 3%
inhibition [2]: 7% and 6%
inhibition [3]: -8%

NS(=O)(=O)c1ccc(Nc2ncc(-c3ccccc3)o2)cc1
inhibition [1]: 2% and 3%
inhibition [2]: 4% and 3%
inhibition [3]: 2%

Cc1cccc(-c2n[nH]cc2-c2ccc3ncccc3n2)n1
inhibition [1]: -4%
inhibition [2]: 2% and 4%
inhibition [3]: -6%

Nc1ncnc2occ(-c3ccc(NC(=O)Nc4cccc(C(F)(F)F)c4)cc3)c12
inhibition [1]: 19% and 16%
inhibition [2]: 3%
inhibition [3]: 43%

CS(=O)(=O)CCNCc1nc(-c2ccc3ncnc(Nc4ccc(OCc5cccc(C(F)(F)F)c5)cc4)c3c2)cs1
inhibition [1]: 0%
inhibition [2]: -9% and 5%
inhibition [3]: -6%

Nc1nc(-c2ccccn2)c(-c2ccc3ncccc3n2)s1
inhibition [1]: 0% and -2%
inhibition [2]: 5%
inhibition [3]: -5%

CCc1ccc(Oc2nccc(-c3c(-c4ccc(F)cc4)ncn3C3CCNCC3)n2)cc1
inhibition [1]: -3% and -4%
inhibition [2]: 3% and 2%
inhibition [3]: -6%

CCn1c(-c2nonc2N)nc2cnc(Oc3cccc(NC(=O)c4ccc(N(C)C)cc4)c3)cc21
inhibition [1]: 31%
inhibition [2]: 5% and 9%
inhibition [3]: -6%

COc1cc(N2CCN(C(C)C)CC2)ccc1Nc1nc(Nc2cccc3ncccc23)c2cc[nH]c2n1
inhibition [1]: 2% and 0%
inhibition [2]: 2% and 9%
inhibition [3]: -5%

COC(=O)Nc1nc2ccc(S(=O)(=O)c3ccc(NC(=O)Nc4cc(C(F)(F)F)ccc4F)cc3)cc2[nH]1
inhibition [1]: -1% and -2%
inhibition [2]: 2% and 3%
inhibition [3]: 0%

Nc1nccc(-c2c(-c3ccc(F)cc3)nn3cc(C(F)(F)F)ccc23)n1
inhibition [1]: 2%
inhibition [2]: 1% and 0%
inhibition [3]: 88%

NC(=O)c1sc(-n2cnc3ccc(C(F)(F)F)cc32)cc1OCc1ccccc1Br
inhibition [1]: 2% and 1%
inhibition [2]: 1% and 0%
inhibition [3]: 101%

CS(=O)(=O)CCNCc1ccc(-c2ccc3ncnc(Nc4ccc(OCc5ccccc5)c(Cl)c4)c3c2)o1
inhibition [1]: 1% and -3%
inhibition [2]: 8% and 2%
inhibition [3]: 89%

Cc1nc(-c2ccccc2)n2nc(NCCCN3CCOCC3)ncc12
inhibition [1]: 3% and 4%
inhibition [2]: 1%
inhibition [3]: 39%

COc1cccc(-n2ncc3c(N/N=C/c4ccc(F)cc4)ncnc32)c1
inhibition [1]: 1% and 0%
inhibition [2]: 5% and 3%
inhibition [3]: -2%

CC(C)(CO)CNC(=O)c1ccc2c(c1)/C(=N/Nc1ccc(S(N)(=O)=O)cc1)C(=O)N2
inhibition [1]: 77% and 76%
inhibition [2]: -7% and 1%
inhibition [3]: 9%

CS(=O)(=O)Nc1ccc(-c2cc(-c3ccccc3)cc(C(N)=O)c2N)cc1
inhibition [1]: -2% and -1%
inhibition [2]: -1% and -3%
inhibition [3]: -2%

CS(=O)(=O)CCNCc1ccc(-c2ccc3ncnc(Nc4ccc(OCc5ccccc5)cc4)c3c2)o1
inhibition [1]: -1%
inhibition [2]: 3%
inhibition [3]: -3%

COc1ccc2[nH]c3c4[nH]c5ccc(OC)cc5c4c4c(c3c2c1)C(=O)NC4=O
inhibition [1]: 21% and 20%
inhibition [2]: 12% and 13%
inhibition [3]: 5%

Fc1cccc(COc2ccc(Nc3ncncc3C#Cc3ccccc3)cc2Cl)c1
inhibition [1]: -4% and 0%
inhibition [2]: 2% and 5%
inhibition [3]: -5%

COc1cc(Nc2ncc3c(C)nc(-c4cccc(C(F)(F)F)c4)n3n2)cc(OC)c1OC
inhibition [1]: 29% and 33%
inhibition [2]: 4% and 2%
inhibition [3]: 6%

NS(=O)(=O)c1ccc(N/N=C2\C(=O)Nc3ccc(C(=O)NCc4ccncc4)cc32)cc1
inhibition [1]: 65%
inhibition [2]: 0%
inhibition [3]: -8%

O=C1NC(=O)C(N2CCc3ccccc32)=C1c1ccc(Cl)cc1
inhibition [1]: 1%
inhibition [2]: 8% and 9%
inhibition [3]: -6%

COc1ccc(C2=C(N3CCc4ccccc43)C(=O)NC2=O)cc1
inhibition [1]: -1% and 0%
inhibition [2]: 2% and 0%
inhibition [3]: 3%

CCn1cc(-c2ccnc3[nH]ccc23)c(-c2cccc(NC(=O)Nc3ccc(OCc4ccccc4)cc3)c2)n1
inhibition [1]: 0% and 1%
inhibition [2]: -3%
inhibition [3]: -1%

c1ccc(-c2nc3n(c2-c2ccc4c(c2)OCO4)CCC3)nc1
inhibition [1]: 1% and 2%
inhibition [2]: 2% and 0%
inhibition [3]: -1%

COC(=O)Nc1nc2cc(Oc3cccc(NC(=O)Nc4cc(C(F)(F)F)ccc4F)c3)ccc2[nH]1
inhibition [1]: -1% and -2%
inhibition [2]: 0% and 2%
inhibition [3]: -10%

CC1(C)CC(n2cnc(-c3ccc(F)cc3)c2-c2ccnc(N)n2)CC(C)(C)N1
inhibition [1]: -1% and 4%
inhibition [2]: 3%
inhibition [3]: -5%

CCCN1CCC(c2ccc(Nc3nc(Nc4cc(F)ccc4C(N)=O)c4cc[nH]c4n3)c(OC)c2)CC1
inhibition [1]: 8% and 6%
inhibition [2]: 3% and 0%
inhibition [3]: 5%

O=C(Nc1ccc(Oc2ccc3[nH]c(NC(=O)c4ccco4)nc3c2)cc1)Nc1cc(C(F)(F)F)ccc1F
inhibition [1]: 1% and 0%
inhibition [2]: -1%
inhibition [3]: 27%

CC1=C(C(=O)Nc2ccc3[nH]ncc3c2)C(c2ccc(Cl)c(Cl)c2)CC(=O)N1 (configuration not stated)
inhibition [1]: 0% and 1%
inhibition [2]: 6% and -8%
inhibition [3]: 3%

Nc1nc(-c2ccc3c(c2)C(=Cc2cc(Br)c(O)c(Br)c2)C(=O)N3)cs1
inhibition [1]: 8% and 6%
inhibition [2]: 4% and 2%
inhibition [3]: -8%

CN(C)C(=O)O[C@H]1CN[C@H](C#Cc2cc3ncnc(Nc4ccc(OCc5cccc(F)c5)c(Cl)c4)c3s2)C1
inhibition [1]: 0% and 2%
inhibition [2]: 2% and 1%
inhibition [3]: 2%

COc1cc(/C=N/Nc2ncnc3c2cnn3C(C)C)ccc1O
inhibition [1]: 0% and -3%
inhibition [2]: -3% and 1%
inhibition [3]: 2%
